Five compounds from patent publication US7482365B2, “Piperidylcarboxamide derivatives and their use in the treatment of tachykinin-mediated diseases” (Glaxo Group Limited, priority 2002, dated 2009) can be followed below.

`Cc1cc(F)ccc1[C@H]1C[C@H](NCC(N)=O)CCN1C(=O)N(C)Cc1cc(C(F)(F)F)cc(C(F)(F)F)c1.Cl` displayed a melting point of 130 to 131 °C.

`Cc1cc(F)ccc1[C@H]1C[C@@H](NCC(N)=O)CCN1C(=O)N(C)Cc1cc(C(F)(F)F)cc(C(F)(F)F)c1.Cl` showed a melting point of 100 to 101 °C.

The compound `Cc1cc(F)ccc1[C@H]1C[C@H](N(C)C)CCN1C(=O)N(C)Cc1cc(C(F)(F)F)cc(C(F)(F)F)c1.Cl` had a melting point of 180 to 183 °C.

`Cc1cc(F)ccc1[C@H]1C[C@@H](N(C)C)CCN1C(=O)N(C)Cc1cc(C(F)(F)F)cc(C(F)(F)F)c1.Cl` displayed a melting point of 147 to 150 °C.

As to `Cc1cc(F)ccc1[C@H]1C[C@H](NCCF)CCN1C(=O)N(C)Cc1cc(C(F)(F)F)cc(C(F)(F)F)c1.Cl`, the melting point lay within 145 to 146 °C.

As a reminder, the melting point is the temperature of the solid-liquid transition.
